Reference: patent publication US20250230138A1, “COMPOUNDS HAVING A T-STRUCTURE FORMED BY AT LEAST FOUR CYCLES FOR USE IN THE TREATMENT OF CANCER AND OTHER INDICATIONS” (TheRas, Inc., priority 2022, published 2025)
Read-outs that look alike come from different tables or passages of the source.

Key:
[1] = target: Cys242 in human PIK3CA (157-299) (Homo sapiens (Human), UniProt P42336); test: Covalent modification assay using MALDI-TOF MS; format: biochemical; settings: 4 h reaction time point
Summary of the method: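 PIK3CA (157-299), 3.33 or 1 μM in 20 mM HEPES, 150 mM NaCl, 2 mM MgCl2, pH 7.3, was incubated with compound at room temperature in the dark for 15 min, 30 min, 2 h or 4 h. Linear MALDI-TOF read-out; % modification = adduct peak height over summed heights of all protein species.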

pAKT in BT474 cells = test: Cell-based pAKT HTRF assay in BT474 cells; settings: BT474 cells, 4 hr incubation, read-out: pAKT inhibition IC50 in BT474 cells
Summary of the method: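 The HTRF signal (excitation 320 nm, emission 615 nm) came from d2/Eu Cryptate antibodies added to lysates and incubated 4–24 h at room temperature. Those lysates were taken from cells treated for 4 hr with compound, top concentration 3 μM, in 0.25% DMSO.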

[2] = 3.33 μM protein target, 1:7.5 protein to compound ratio (compounds 1-852)
[3] = 1 μM protein target, 1:5 protein to compound ratio (compounds 853-1279)
[4] = Homo sapiens, BT-474, Compounds 10-999

Sequence of Cys242 in human PIK3CA (157-299) (P42336 157-299): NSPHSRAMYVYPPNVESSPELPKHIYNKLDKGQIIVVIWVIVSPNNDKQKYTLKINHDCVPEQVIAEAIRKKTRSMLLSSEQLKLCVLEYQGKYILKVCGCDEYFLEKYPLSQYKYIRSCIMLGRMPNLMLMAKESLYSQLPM

Compound | % of modification [1, 2] | IC50 (pAKT in BT474 cells; Compounds 10-999) [nM] | % of modification [1, 3] | IC50 (pAKT in BT474 cells; Compounds 1000-1279) [nM] | IC50 (pAKT in BT474 cells; [4]) [nM]
C=CC(=O)N1Cc2cc(-c3nc(-c4cnn(C)c4)c4ccsc4c3-c3c(F)cc(F)cc3OC[C@@H](C)O)nn2[C@@H](C)C1 [Compound 582] | A (percent of modification of PIK3CA protein ≥75%) | < 100 | – | – | –
C=CC(=O)N1CCn2nc(-c3nc(-c4cccc(OCCN(C)C)c4)c4ccsc4c3-c3c(F)cc(F)cc3OCCOC)cc2C1C (centres unmarked) [Compound 1046] | – | – | A (percent of modification of PIK3CA protein ≥75%) | < 100 | –
C=CC(=O)N1Cc2cc(-c3nc(-c4ccc5nn(C)cc5c4)c4ccsc4c3-c3c(F)cc(F)cc3OC(C)C)nn2C[C@H]1C [Compound 525] | A (percent of modification of PIK3CA protein ≥75%) | < 100 | – | – | –
C=CC(=O)N1Cc2cc(-c3nc(-c4ccc5c(c4)ncn5C)c4ccsc4c3-c3c(F)cc(F)cc3OCCOC)nn2C[C@H]1C [Compound 669] | A (percent of modification of PIK3CA protein ≥75%) | < 100 | – | – | –
C=CC(=O)N1CCn2nc(-c3nc(-c4ccc5c(c4)CCN(C)CC5)c4ccsc4c3-c3c(F)cc(F)cc3OCCOC)cc2C1C (centres unmarked) [Compound 996] | – | < 100 | A (percent of modification of PIK3CA protein ≥75%) | – | –
C=CC(=O)N1CCn2nc(-c3nc(-c4cnc5c(cnn5C)c4)c4ccsc4c3-c3c(F)cc(F)cc3OCCO)cc2C1C (centres unmarked) [Compound 877] | – | < 100 | A (percent of modification of PIK3CA protein ≥75%) | – | –
C=CC(=O)N1CC(n2cc(-c3nc(C4=CCN(S(C)(=O)=O)CC4)c4ccsc4c3-c3ccc(F)cc3OC)cn2)C1 [Compound 299] | A (percent of modification of PIK3CA protein ≥75%) | 100 to 1000 | – | – | –
C=CC(=O)N1CCC(n2cc(-c3nc(-c4ccc5c(c4)CCNC5)c4ccsc4c3-c3c(F)cc(F)cc3OC(C)C)cn2)C1 (centres unmarked) [Compound 410] | A (percent of modification of PIK3CA protein ≥75%) | 100 to 1000 | – | – | –
C=CC(=O)N1CCc2ccc(-c3nc(-c4cnc5c(c4)CN(C)CC5)c4ccsc4c3-c3c(F)cc(F)cc3OCCO)cc2C1 [Compound 498] | A (percent of modification of PIK3CA protein ≥75%) | < 100 | – | – | –
C=CC(=O)N1CC(n2cc(-c3nc(-c4ccc5c(c4)CCNC5)c4ccsc4c3-c3ccc(F)cc3OCCOC)ncc2=O)C1 [Compound 210] | A (percent of modification of PIK3CA protein ≥75%) | < 100 | – | – | –
C=CC(=O)N1CCn2nc(-c3nc(-c4ccc5nn(C)cc5c4)c4ccsc4c3-c3c(F)cc(F)cc3OCCO)cc2[C@H]1C [Compound 774] | A (percent of modification of PIK3CA protein ≥75%) | < 100 | – | – | –
C=CC(=O)NCc1cc(-c2nc(-c3ccc4c(c3)CCNC4)c3ccsc3c2-c2ccc(F)cc2OCCOC)ccc1OC [Compound 74] | D (percent of modification <25%) | 1000 to 3000 | – | – | –
C=CC(=O)N1CCn2nc(-c3nc(-c4cn(C)cn4)c4ccsc4c3-c3c(F)cc(F)cc3OCCOC)cc2[C@@H]1C [Compound 777] | A (percent of modification of PIK3CA protein ≥75%) | < 100 | – | – | –
C/C=C/C(=O)N1CC(n2cc(-c3nc(-c4ccc5c(c4)CCNC5)c4ccsc4c3-c3ccc(F)cc3OC)cn2)C1 [Compound 129] | D (percent of modification <25%) | > 3000 | – | – | –
C=CC(=O)N1CCn2nc(-c3nc(-c4cn(C)cn4)c4ccsc4c3-c3c(F)cc(F)cc3OCC(C)O)cc2C1C (centres unmarked) [Compound 833] | A (percent of modification of PIK3CA protein ≥75%) | < 100 | – | – | –
C=CC(=O)N1CCn2nc(-c3nc(-c4ccc(=O)n(C)c4)ncc3-c3ccc(F)cc3OC(C)C)cc2C1 [Compound 337, 5-[5-(4-fluoro-2-isopropoxy-phenyl)-4-(5-prop-2-enoyl-6,7-dihydro-4H-pyrazolo [1,5-a]pyrazin-2-yl)pyrimidin-2-yl]-1-methyl-pyridin-2-one] | B (50%<percent of modification <75%) | – | – | – | > 3000
C=CC(=O)N1CCc2nc(-c3nc(-c4cnn(C)c4)c4ccsc4c3-c3c(F)cc(F)cc3OCCOC)sc2C1 [Compound 363] | A (percent of modification of PIK3CA protein ≥75%) | < 100 | – | – | –
C=CC(=O)N1CCc2nc(-c3nc(-c4ccc5c(c4)CCNC5)c4ccsc4c3-c3ccc(F)cc3OC(F)F)sc2C1 [Compound 215] | A (percent of modification of PIK3CA protein ≥75%) | 100 to 1000 | – | – | –
C=CC(=O)N1CC(n2cc(-c3nc(-c4ccc5c(c4)CCNC5)c4c(c3-c3ccc(F)cc3OCCOC)CCC4)cn2)C1 [Compound 109] | A (percent of modification of PIK3CA protein ≥75%) | 100 to 1000 | – | – | –

Compound | % of modification [1, 2] | IC50 (pAKT in BT474 cells; Compounds 10-999) [nM] | % of modification [1, 3] | IC50 (pAKT in BT474 cells; Compounds 1000-1279) [nM] | IC50 (pAKT in BT474 cells; [4]) [nM]
C=CC(=O)N1CCn2nc(-c3nc(-c4ccc(OCCN5CC(F)(F)C5)cc4)c4ccsc4c3-c3c(F)cc(F)cc3OCCOC)cc2C1C (centres unmarked) [Compound 1062] | – | – | A (percent of modification of PIK3CA protein ≥75%) | < 100 | –
C=CC(=O)N1CC(n2cc(-c3nc(-c4cnn(CC(N)=O)c4)c4ccsc4c3-c3ccc(F)cc3OCCOC)cn2)C1 [Compound 239] | A (percent of modification of PIK3CA protein ≥75%) | < 100 | – | – | –
C=CC(=O)N1Cc2cc(-c3nc(-c4ccc5ncn(C)c5c4)c4ccsc4c3-c3c(F)cc(F)cc3O[C@H](C)CO)nn2C[C@H]1C [Compound 611] | D (percent of modification <25%) | 100 to 1000 | – | – | –
C=CC(=O)N1Cc2cc(-c3nc(-c4ccc5c(c4)CCN(C)C5)c4ccsc4c3-c3c(F)cc(F)cc3OC[C@@H](C)O)nn2[C@@H](C)C1 [Compound 589] | D (percent of modification <25%) | < 100 | – | – | –
C=CC(=O)N1CCn2nc(-c3nc(-c4ccc5c(c4)CNC5=O)c4ccsc4c3-c3c(F)cc(F)cc3OCCOC)cc2[C@H]1C [Compound 520] | A (percent of modification of PIK3CA protein ≥75%) | < 100 | – | – | –
C=CC(=O)N1CCc2ccc(-c3nc(-c4cnc(N5CCN(C)CC5)nc4)c4ccsc4c3-c3c(F)cc(F)cc3OCCOC)cc2C1 [Compound 1069] | – | – | D (percent of modification <25%) | > 1000 | –
C=CC(=O)N1CCn2nc(-c3nc(-c4ccc5c(cnn5C)c4)c4ccsc4c3-c3c(F)cc(F)cc3OCC(C)(C)O)cc2C1C (centres unmarked) [Compound 1125] | – | – | A (percent of modification of PIK3CA protein ≥75%) | 100 to 1000 | –
C=CC(=O)N1CC(n2cc(-c3nc(N4CCn5cnnc5C4)c4ccsc4c3-c3ccc(F)cc3OCCOC)cn2)C1 [Compound 228] | A (percent of modification of PIK3CA protein ≥75%) | 100 to 1000 | – | – | –
C=CC(=O)N1CCn2cc(-c3nc(-c4ccc5c(c4)CCNC5)c4ccsc4c3-c3ccc(F)cc3OCCOC)nc2C1 [Compound 101, 1-[2-[7-[4-fluoro-2-(2-methoxyethoxy)phenyl]-4-(1,2,3,4-tetrahydroisoquinolin-6-yl)thieno[3,2-c]pyridin-6-yl]-6,8-dihydro-5H-imidazo[1,2-a]pyrazin-7-yl]prop-2-en-1-one] | A (percent of modification of PIK3CA protein ≥75%) | – | – | – | < 100
C=CC(=O)N1CCc2nc(-c3nc(-c4cnn(C)c4N)c4ccsc4c3-c3c(F)cc(F)cc3OC(C)C)sc2C1 [Compound 351] | A (percent of modification of PIK3CA protein ≥75%) | 100 to 1000 | – | – | –
C=C(F)C(=O)N1Cc2cc(-c3nc(-c4ccc5c(c4)CCN(C)C5)c4ccsc4c3-c3c(F)cc(F)cc3OC[C@@H](C)O)nn2C[C@H]1C [Compound 575] | D (percent of modification <25%) | 100 to 1000 | – | – | –
CC(C)Oc1cc(F)ccc1-c1c(-c2cc3n(n2)CCN(C(=O)/C=C/CN(C)C)C3)nc(-c2ccc3c(c2)CCNC3=O)c2ccsc12 [Compound 285] | B (50%<percent of modification <75%) | 100 to 1000 | – | – | –
C=C(F)C(=O)N1Cc2cc(-c3nc(-c4ccc5c(c4)CCN(C)C5)c4ccsc4c3-c3c(F)cc(F)cc3OC(C)C)nn2CC1C (single isomer, unassigned) [Compound 500] | D (percent of modification <25%) | > 3000 | – | – | –
C=CC(=O)N1CCn2nc(-c3nc(-c4cnc5c(c4)CN(C)CC5(F)F)c4ccsc4c3-c3c(F)cc(F)cc3OCCO)cc2C1C (centres unmarked) [Compound 1196] | – | – | A (percent of modification of PIK3CA protein ≥75%) | < 100 | –
C=CC(=O)N1CCn2nc(-c3nc(-c4ccc5cnncc5c4)c4ccsc4c3-c3c(F)cc(F)cc3OCCO)cc2C1C (centres unmarked) [Compound 909] | – | < 100 | A (percent of modification of PIK3CA protein ≥75%) | – | –
C=CC(=O)N1CCn2nc(-c3nc(-c4ccc(C5(C(=O)NC)CC5)cc4)c4ccsc4c3-c3c(F)cc(F)cc3OCCOC)cc2[C@H]1C [Compound 1134] | – | – | A (percent of modification of PIK3CA protein ≥75%) | < 100 | –
C=CC(=O)N1CCn2nc(-c3nc(-c4ccc5c(c4)CCN(C)C5)c4ccsc4c3-c3c(F)cc(F)cc3OC[C@@H](C)O)cc2[C@@H]1C [Compound 546] | A (percent of modification of PIK3CA protein ≥75%) | < 100 | – | – | –
C=CC(=O)N1CCn2nc(-c3nc(-c4cnc5cnn(C)c5c4)c4ccsc4c3-c3c(F)cc(F)cc3OCCO)cc2C1C (centres unmarked) [Compound 901] | – | < 100 | A (percent of modification of PIK3CA protein ≥75%) | – | –
